Values quoted from earlier work in US11986533B2, “Macromonomers and bottle brush polymers for delivery of biological agents” (Regents of the University of Minnesota, priority 2021, dated 2024).

O=C1NC(=O)C(c2ccccc2)(c2ccccc2)N1 [phenytoin]
log P: 2.14
